Test results taken from the supplement of paper PMC7224384.

Legend:
[1] = tested on: MDA-MB-453; assay: drug sensitivity score (DSS), single agent (DSS (weighted AUC score)); higher = more sensitive (stronger viability decrease); extreme values may be limits of the assay; conditions: BLU9931 0 nM; 72 h
Procedure, shortened: (§1)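 Compounds from the FIMM Oncology set were predispensed in singlicate at five 10-fold dilutions (10,000-fold range) on 384-well plates. Each well then received 2000 MDA-MB-453 cells in medium with or without an FGFR4 inhibitor (100 nM final) and was kept at 37 °C, 5% CO2. Cellular ATP was read with CellTiterGlo 2.0 after 72 h and normalised per plate to percent viability from control wells. The drug sensitivity score is a weighted area under a four-parameter logistic fit.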

[2] = tested on: MDA-MB-453; assay: drug sensitivity score (DSS), in combination with BLU9931 (DSS (weighted AUC score)); higher = more sensitive (stronger viability decrease); extreme values may be limits of the assay; conditions: BLU9931 100 nM; 72 h
Procedure, shortened: as §1

SMILES | drug sensitivity score [1] | drug sensitivity score [2]
O[C@H]1CC[C@H](Nc2ncc3nc(Nc4c(F)cc(F)cc4F)n([C@H]4CCOC4)c3n2)CC1 [Tanzisertib] | 0 | 0
CCc1c(C(=O)C(N)=O)c2c(OCC(=O)O)cccc2n1Cc1ccccc1 [Varespladib] | 0 | 0.8
COc1cccc(OCCCN)c1-c1cc(Nc2cnc(C#N)cn2)n[nH]1 [Prexasertib] | 28 | 23.6
COc1cc(Nc2c(C#N)cnc3cc(OCCCN4CCN(C)CC4)c(OC)cc23)c(Cl)cc1Cl [Bosutinib] | 5 | 4.6
CCN(CC)CCN(Cc1ccc(-c2ccc(C(F)(F)F)cc2)cc1)C(=O)Cn1c(SCc2ccc(F)cc2)nc(=O)c2c1CCC2 [Darapladib] | 1.5 | 0
CN1CCC(CNc2ccc3ncc(-c4cccc(OC(F)(F)F)c4)n3n2)CC1 [SGI-1776] | 6.6 | 5.8
CC(C)n1cnc2c(NCCc3ccc(O)cc3)nc(-c3csc4ccccc34)nc21 [StemRegenin 1] | 0.3 | 0.4
NC[C@@](O)(c1ccc(Cl)cc1)c1ccc(-c2cn[nH]c2)cc1 | 1.3 | 2.4
Nc1ncnc2c1nc(Cl)n2[C@@H]1O[C@H](CO)[C@@H](O)[C@H]1O [8-chloro-adenosine] | 8.1 | 9.4
CCCS(=O)(=O)Nc1ccc(F)c(C(=O)c2c[nH]c3ncc(-c4ccc(Cl)cc4)cc23)c1F [Vemurafenib] | 0 | 0
COC(=O)C[C@](O)(CCCC(C)(C)O)C(=O)O[C@@H]1C(OC)=C[C@]23CCCN2CCc2cc4c(cc2[C@H]13)OCO4 [Omacetaxine] | 22.1 | 20.5
Cc1cn(-c2cc(NC(=O)c3ccc(C)c(Nc4nccc(-c5cccnc5)n4)c3)cc(C(F)(F)F)c2)cn1 [Nilotinib] | 1.7 | 1.5
CC(C)(C)c1cc(NC(=O)Nc2ccc(-c3cn4c(n3)sc3cc(OCCN5CCOCC5)ccc34)cc2)no1 [Quizartinib] | 1 | 0.4
Cn1cnc2c(F)c(Nc3ccc(Br)cc3F)c(C(=O)NOCCO)cc21 [Binimetinib] | 0 | 0.2
CCCCc1nc2cc(/C=C/C(=O)NO)ccc2n1CCN(CC)CC [Pracinostat] | 22.3 | 19.8
